Read-outs that look alike come from different tables or passages of the source.
Assays:
APOA1 = APOA1 (Homo sapiens, UniProt P02647); experiment: APOA1-lyso-DGTS interaction, Trp fluorescence quenching; assay type: binding; details: for Kd: read-out: Binding constant Ka, lyso-DGTS-APOA1 (converted)
Method: The Trp-fluorescence-quenching method was further used to examine the interaction between lyso-DGTS and APOA1, the major protein component of HDL. Ka and thermodynamic parameters were also calculated (Table 6). […] The values obtained for n were not affected by temperature and were equal to=1 (Table 6).
The thermodynamic parameters: enthalpy (ΔH), entropy (ΔS), and free energy (ΔG) were calculated to characterize the APOA1-lyso-DGTS interaction type.

HDL = HDL surface polarity, Laurdan General Polarization (Gp) assay; set-up: species or system human; details: HDL 100 μg/ml, lyso-DGTS 0-100 μg/ml
Method: The fluorescence emission spectra of Laurdan were obtained using at excitation/emission 340/400-520 nm. The value of Gp of Laurdan was calculated using the formula: Gp=(I435−I490)/(I435+I490). Each experiment was repeated separately at least three times. *p<0.05, ***p<0.0001 related to the control (HDL without lyso-DGTS). Statistics were analyzed using T-test Graphpad prism 5 software.
HDL particles are plurimolecular, quasi-spherical or discoid, pseudomicellar complexes predominantly composed of polar lipids solubilized by apolipoproteins. In order to determine a possible interaction between lyso-DGTS and the HDL lipid core, the Laurdan General Polarization (Gp) assay was used. […] This interaction may cause a change in its physical state and lipid core polarity and thus affect its functionality.

[1] = tested on: HDL isolated from Balb/c mice; experiment: Pro-/anti-inflammatory properties of HDL isolated from HFD fed Balb/c mice, cell free assay; assay type: in vivo; details: HDL from HFD mice given lyso-DGTS 1.43 mg/ml, 3.5 μl a day, 28 days; fluorescence without HDL = 1.0; p<0.05
Method: Balb/c mice fed with normal rodent diet (the “non” group; n=11) or HFD received treatment administered via subcutaneously implanted osmotic mini-pumps: 1) vehicle group injected with DDW+2% Tween 80 (n=9); 2) lyso-DGTS group injected with lyso-DGTS (1.43 mg/ml in DDW+2% Tween 80; n=1). At the end of the protocol, serum was obtained, HDL was isolated, and its pro-inflammatory/anti-inflammatory properties were determined using cell free assay (CFA). Fluorescence in the absence of HDL was normalized to 1.0. Values>1.0, after addition of the tested HDL, indicated pro-inflammatory activity; and values<1.0 indicated anti-inflammatory activity. (*p<0.05).
In order to examine the effect of lyso-DGTS on HDL-anti-inflammatory effects in-vivo, 3.5 μl lyso-DGTS a day were administered for 28 days, via a subcutaneously implanted osmotic mini-pump, to HFD fed mice. As described in Example 12, the mice were divided into three groups: 1) mice fed with regular diet for 12 weeks (the “non” group; […]); 2) mice fed with HFD for 12 weeks and injected with lyso-DGTS (1.43 mg/ml in DDW+2% Tween) from week 9 (the lyso-DGTS group; n=1); and 3) mice fed with HFD for 12 weeks and injected with DDW+2% Tween (the vehicle group; n=9).

human serum PON1 = biological target: T1, human serum PON1 (Homo sapiens, UniProt P27169); experiment: Human serum PON1 lactonase activity (dihydrocoumarin assay); assay type: biochemical; details: 4 h, 37° C., 1.8 units without lyso-DGTS
T1 construct: tissue Industries biologic (Bet-Haemk, Israel); host or cells: human serum
Method: 200 μl of human serum diluted by 20 with phosphate-buffered saline (PBS) (PH=7.6) was incubated with lyso-DGTS at various concentrations (0, 1, 5, 10 and 50 μg/ml) for 4 h at 37° C. Then, 10 μl was taken to measure lactonase activity using the dihydrocoumarine assay.
The effect of lyso-DGTS on lactonase activity of human serum PON1 was examined. Human serum was diluted by 20 with PBS buffer and incubated with and without lyso-DGTS at concentrations of 1, 5, 10, and 50 μg/ml for 4 h at 37° C. Lactonase activity of the enzyme was measured using dihydrocoumarin assay. As shown in Example 1, lyso-DGTS increased human serum lactonase activity in a dose dependent manner up to 10 μg/ml, from 1.8 units without lyso-DGTS to 2.16, 2.82, 3.01, and 2.80 units at 1, 5, 10 and 50 μg/ml lyso-DGTS, respectively. The change at 1 μg/ml of lyso-DGTS was not statistically significant (FIG. 2).

PON1 = PON1 (Homo sapiens, UniProt P27169); experiment: PON1 binding to HDL (ratio HDL-bound PON1 vs. free PON1); details: data not shown
J774A.1 macrophages = experiment: HDL-mediated cholesterol efflux from macrophage cells; assay type: cell-based, murine; details: 16.5% without lyso-DGTS
Method: Cholesterol efflux Fluorometric Assay Kit (Cell-Based), Biovision was used to measure the effect of lyso-DGTS on HDL-cholesterol efflux.
J774.1 macrophage cells were grown in RPMI 1640 media containing 10% FBS in cell culture flask till ˜90% confluence (37° C. incubator containing 5% CO2). The cells were splitted under sterile conditions using basic cell culture techniques and plate to approximately 1×10^5 cells/well in a 96-well plate (white plate with clear bottom) using 100 μl media/well. After 2 h, the cells attached to the plates, washed with RPMI 1640 media (no serum added) and labeled with 50 μl labeling reagent and 50 μl equilibration buffer, supplied by the kit, for 16 h. 100 μl equilibration buffer alone were added to the background control for measuring background fluorescence. The cells were washed with media and treated for another 4-6 h with 100 μl of RPMI 1640 media containing HDL (25 μg protein) preincubated with lyso-DGTS at various concentrations (0, 10, 20, 50, and 100 μg/ml) for 4 h. To the negative control was added RPMI 1640 media alone.
The fluorescence of the supernatant was measured (excitation/emission=482/515 nm). The cells were solubilized adding 100 μl of Cell Lysis Buffer and shaking on a plate shaker for 30 min at room temperature, and its fluorescence was also measured.
Cholesterol efflux of the treatments was calculated by dividing the fluorescence intensity of the media by total fluorescence intensity of the cell lysate of the same treatment and media.
HDL removes cholesterol from cells, including macrophages. HDL particles were incubated with lyso-DGTS at different concentrations. The HDL ability to efflux cholesterol from J774A.1 macrophages was measured using flouromtric assay (cell-based cholesterol efflux flouromtric assay kit, supplied by Biovision) and expressed as % of cholesterol efflux. […] The cholesterol removal enhanced from 16.5% (without lyso-DGTS) to 22.5%, 31.5%, 36.5%, and 46.5% after incubation with lyso-DGTS at 10, 20, 50, and 100 μg/ml, respectively (FIG. 8).

APOA1, sequence (P02647 19-267, species assumed): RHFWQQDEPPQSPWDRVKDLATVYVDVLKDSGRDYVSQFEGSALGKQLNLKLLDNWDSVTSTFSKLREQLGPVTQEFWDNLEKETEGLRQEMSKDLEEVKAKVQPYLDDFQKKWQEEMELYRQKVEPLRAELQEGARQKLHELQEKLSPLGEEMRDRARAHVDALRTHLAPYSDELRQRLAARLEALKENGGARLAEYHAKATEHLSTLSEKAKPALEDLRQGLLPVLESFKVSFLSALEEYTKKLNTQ
T1 sequence (P27169 whole entry): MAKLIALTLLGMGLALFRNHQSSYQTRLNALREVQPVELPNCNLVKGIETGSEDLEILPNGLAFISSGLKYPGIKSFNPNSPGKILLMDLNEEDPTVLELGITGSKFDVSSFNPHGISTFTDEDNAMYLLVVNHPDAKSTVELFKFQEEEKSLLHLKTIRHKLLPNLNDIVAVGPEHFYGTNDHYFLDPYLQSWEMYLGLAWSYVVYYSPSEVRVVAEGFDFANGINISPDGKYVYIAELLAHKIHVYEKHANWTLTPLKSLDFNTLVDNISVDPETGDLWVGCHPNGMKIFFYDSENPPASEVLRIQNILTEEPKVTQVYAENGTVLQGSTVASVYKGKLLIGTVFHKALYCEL
PON1, sequence (P27169 whole entry, species assumed): as the sequence (P27169 whole entry) above

CC/C=C\C/C=C\C/C=C\C/C=C\C/C=C\CCCC(=O)OCC(O)COCCC(C(=O)[O-])[N+](C)(C)C (stereo not shown) [lyso-DGTS, lyso-diacylglyceryltrimethylhornmoserine]
number of binding sites (n), lyso-DGTS-APOA1 (APOA1; 298 K): 1.01 ± 0.05 | ΔG, lyso-DGTS-APOA1 interaction (APOA1; 298 K): -1.09 kcal/mol | Kd (APOA1; 298 K (25° C.)): 422 µM | number of binding sites (n), lyso-DGTS-APOA1 (APOA1; 310 K): 1.23 ± 0.05 | ΔG, lyso-DGTS-APOA1 interaction (APOA1; 310 K): -1.464 kcal/mol | Kd (APOA1; 310 K (37° C.)): 43.9 µM | ΔH, lyso-DGTS-APOA1 interaction (APOA1; from 298 and 310 K): 8.243 kcal/mol | ΔS, lyso-DGTS-APOA1 interaction (APOA1; from 298 and 310 K): 131.126 J/mol K | effect on HDL Gp values (Laurdan) (HDL): significantly decreased the HDL Gp values at a dose dependent manner at 20, 50, and 100 μg/ml | HDL inflammatory value [1]: < 1 | human serum PON1 lactonase activity (human serum PON1; 1 μg/ml lyso-DGTS, change not statistically significant): 2.16 units | human serum PON1 lactonase activity (human serum PON1; 5 μg/ml lyso-DGTS): 2.82 units | human serum PON1 lactonase activity (human serum PON1; 10 μg/ml lyso-DGTS): 3.01 units | human serum PON1 lactonase activity (human serum PON1; 50 μg/ml lyso-DGTS): 2.80 units | ratio between HDLbound-PON1 vs. free-PON1 (PON1): did not change | HDL-mediated cholesterol efflux (J774A.1 macrophages; HDL incubated with 10 μg/ml lyso-DGTS): 22.5% | HDL-mediated cholesterol efflux (J774A.1 macrophages; HDL incubated with 20 μg/ml lyso-DGTS): 31.5% | HDL-mediated cholesterol efflux (J774A.1 macrophages; HDL incubated with 50 μg/ml lyso-DGTS): 36.5% | HDL-mediated cholesterol efflux (J774A.1 macrophages; HDL incubated with 100 μg/ml lyso-DGTS): 46.5%
